US9783524B2, “Protein tyrosine kinase modulators and methods of use” (BETTA PHARMACEUTICALS CO., LTD., priority 2013, dated 2017)
Like-named read-outs stand apart in the source and are kept apart here.

Assays:
[1] = tested on: A431 (EGFR WT) cells; assay: Cell proliferation assay (MTS cell viability); type: cell-based; conditions: Homo sapiens, A-431, 72 h, 3 days of exposure
Protocol: (§1) Effects of test compounds on in vitro proliferation were measured by MTS cell viability assay.
A431 cells were maintained in DMEM (Gibco) supplemented with 10% FBS, 100 units/mL penicillin, 100 units/mL streptomycin, and 2 mM glutamine.
2. Prepare test compounds in each well with a final medium volume of 200 μl;
3. Incubate for 3 days of exposure;
4. Prepare reagents following the instructions in the Cell Proliferation Assay kit (Promega);
5. Change to serum-free medium with a final volume of 100 μl/well. Prepare a set of wells with medium only for background subtraction;
6. Add 20 μl MTS solution containing PMS to each well (final concentration of MTS will be 0.33 mg/ml);
7. Incubate 1 to 4 hours at 37° C. in a humidified, 5% CO2 atmosphere.
8. Record absorbance at 490 nm using VICTOR™X5 plate reader (PerkinElmer).
(§2) All experimental points were set up in three wells and all experiments were repeated at least three times.

[2] = tested on: EGFR (h); type: biochemical, human
Protocol: (§3) Assay conditions included 10 μM ATP and 100 nM test compounds.
(§4) All reactions are initiated by the addition of the MgATP mix. After incubation for 40 minutes at room temperature, the reaction is stopped by the addition of 3% phosphoric acid solution. 10 μL of the reaction is then spotted onto a P30 filtermat and washed three times for 5 minutes in 75 mM phosphoric acid and once in methanol prior to drying and scintillation counting. […] The experiment is carried out in duplicate. The value for the control sample (DMSO) was set to 100%, and the values for the compound-treated samples were expressed as activity relative to the control sample.
(§5) (specific activity approx. 500 cpm/pmol, concentration as required) and 0.1 μM test compound.

[3] = tested on: H1975 (EGFR L858R/T790M) NSCLC cells; assay: Cell proliferation assay (MTS cell viability); type: cell-based; conditions: Homo sapiens, NCI-H1975, 72 h, 3 days of exposure
Protocol: as §1
(§6) Prepare test compounds in each well with a final medium volume of 200 μl;
Incubate for 3 days of exposure;
(§7) Prepare reagents following the instructions in the Cell Proliferation Assay kit (Promega);
(§8) Change to serum-free medium with a final volume of 100 μl/well. Prepare a set of wells with medium only for background subtraction;
(§9) Add 20 μl MTS solution containing PMS to each well (final concentration of MTS will be 0.33 mg/ml);
(§10) Incubate 1 to 4 hours at 37° C. in a humidified, 5% CO2 atmosphere.
(§11) Record absorbance at 490 nm using VICTOR™X5 plate reader (PerkinElmer).
as §2

[4] = tested on: A549 (EGFR WT) NSCLC cells; assay: Cell proliferation assay (MTS cell viability); type: cell-based; conditions: Homo sapiens, 72 h, 3 days of exposure
Protocol: as §1
A549 cells were maintained in Ham's F12K medium (Gibco) supplemented with 10% FBS, 100 units/mL penicillin, 100 units/mL streptomycin, and 2 mM glutamine.
as §6
Incubate for 3 days of exposure;
as §7, §8, §9, §10, §11, §2

[5] = tested on: ALK (h); type: biochemical, human; conditions: 0.1 μM test compound, 10 μM ATP; remaining activity relative to DMSO control = 100%
Protocol: as §3
(§12) All reactions are initiated by the addition of the MgATP mix. After incubation for 40 minutes at room temperature, the reaction is stopped by the addition of 3% phosphoric acid solution. 10 μL of the reaction is then spotted onto a P30 filtermat and washed three times for 5 minutes in 75 mM phosphoric acid and once in methanol prior to drying and scintillation counting. This assay is performed by Millipore. The experiment is carried out in duplicate. The value for the control sample (DMSO) was set to 100%, and the values for the compound-treated samples were expressed as activity relative to the control sample.

[6] = tested on: EGFR (T790M) (h); type: biochemical, human
Protocol: as §3, §12

[7] = tested on: HCC827 (EGFR Del) NSCLC cells; assay: Cell proliferation assay (MTS cell viability); type: cell-based; conditions: Homo sapiens, 72 h, 3 days of exposure
Protocol: as §1, §6
Incubate for 3 days of exposure;
as §7, §8, §9, §10, §11, §2

[8] = tested on: lung cancer; conditions: all lung cancer patients, not selected for mutant EGFR; cited from earlier work
[9] = tested on: EGFR (L858R) (h); type: biochemical, human; conditions: 0.1 μM test compound, 10 μM ATP; remaining activity relative to DMSO control = 100%
Protocol: as §3, §4, §5

[10] = tested on: activated and resistant T790M forms of EGFR; assay: In vitro cellular assays, overall statement; type: cell-based; conditions: result in words
Protocol: as §1

[11] = tested on: EGFR (T790M, L858R) (h); type: biochemical, human; conditions: 0.1 μM test compound, 10 μM ATP; remaining activity relative to DMSO control = 100%
Protocol: as §3, §4, §5

[12] = 0.1 μM test compound, 10 μM ATP, remaining activity relative to DMSO control = 100%

Row | SMILES | IC50 [1] [nM] | Activity (control) % EGFR (h) [2] [%] | IC50 [3] [nM] | IC50 [4] [nM] | Activity (control) % ALK (h) [5] [%] | Activity (control) % EGFR (T790M) (h) [6] [%] | IC50 [7] [nM] | likelihood of tumor shrinkage (response rate) [8] | median time to tumor progression [8] | Activity (control) % EGFR (L858R) (h) [9] [%] | Activity (control) % EGFR (h) [2, 12] [%] | activity against both activated and resistant T790M forms of EGFR in vitro cellular assays [10] | Activity (control) % EGFR (T790M) (h) [6, 12] [%] | Activity (control) % EGFR (T790M, L858R) (h) [11] [%]
1 | C=CC(=O)Nc1cc(Nc2ncc(Cl)c(Nc3ccccc3C(=O)C(=O)N(C)C)n2)c(OC)cc1N1CCN(C)CC1 [Example 74, N-(5-(5-chloro-4-(2-(2-(dimethylamino)-2-oxoacetyl)phenylamino)pyrimidin-2-ylamino)-4-methoxy-2-(4-methylpiperazin-1-yl)phenyl)acrylamide] | 50 | 110 | 50 | 620 | 9 | 62 | 30 |  |  |  |  |  |  | 
2 | C#Cc1cccc(Nc2ncnc3cc(OCCOC)c(OCCOC)cc23)c1 [erlotinib] |  |  |  |  |  |  |  | 8-10% | approximately 2 months |  |  |  |  | 
3 | C=C(CN1CCOCC1)C(=O)Nc1cccc(Nc2ncc(Cl)c(Nc3ccccc3C(=O)C(=O)N(C)C)n2)c1 [Example 112, N-(3-(5-chloro-4-(2-(2-(dimethylamino)-2-oxoacetyl)phenylamino)pyrimidin-2-ylamino)phenyl)-2-(morpholinomethyl)acrylamide] |  |  |  |  | 21 |  |  |  |  | 66 | 85 | potent activity | 14 | 1
